Like-named read-outs stand apart in the source and are kept apart here.
Experiments:
RPS6KB1 (p70S6K) = RPS6KB1 (p70S6K) (Homo sapiens, UniProt P23443); assay: Z'-LYTE SelectScreen biochemical kinase assay RPS6KB1 (p70S6K)
Description: (§1) Thermo Fisher Scientific SelectScreen™ Biochemical Kinase Profiling Service Z′-LYTE™ Screening Protocol and Assay Conditions Assay Theory
(§2) The […] biochemical assay employs a fluorescence-based, coupled-enzyme format and is based on the differential sensitivity of phosphorylated and non-phosphorylated peptides to proteolytic cleavage. The peptide substrate is labeled with two fluorophores—one at each end—that make up a FRET pair. In the primary reaction, the kinase transfers the gamma-phosphate of ATP to a single tyrosine, serine or threonine residue in a synthetic FRET-peptide. In the secondary reaction, a site-specific protease recognizes and cleaves non-phosphorylated FRET-peptides. Phosphorylation of FRET-peptides suppresses cleavage by the Development Reagent. Cleavage disrupts FRET between the donor (i.e., coumarin) and acceptor (i.e., fluorescein) fluorophores on the FRET-peptide, whereas uncleaved, phosphorylated FRET-peptides maintain FRET. A ratiometric method, which calculates the ratio (Emission Ratio=Coumarin emission (445 nm)/Fluorescein emission (520 nm)) of donor emission to acceptor emission after excitation of the donor fluorophore at 400 nm, is used to quantitate reaction progress, as shown in the equation below. A significant benefit of this ratiometric method for quantitating reaction progress is the elimination of well-to-well variations in FRET-peptide concentration and signal intensities. As a result, the assay yields very high Z′-factor values (>0.7) at a low percent phosphorylation. Both cleaved and uncleaved FRET-peptides contribute to the fluorescence signals and therefore to the Emission Ratio. The extent of phosphorylation of the FRET-peptide can be calculated from the Emission Ratio. The Emission Ratio will remain low if the FRET-peptide is phosphorylated (i.e., no kinase inhibition) and will be high if the FRET-peptide is non-phosphorylated (i.e., kinase inhibition).
(§3) The Test Compounds are screened in 1% DMSO (final) in the well. For 10 point titrations, 3-fold serial dilutions are conducted from the starting concentration of the customer's choosing.
(§4) All Peptide/Kinase Mixtures are diluted to a 2× working concentration in the appropriate Kinase Buffer (see section Kinase Specific Assay Conditions for a complete description).
(§5) All ATP Solutions are diluted to a 4× working concentration in Kinase Buffer (50 mM HEPES pH 7.5, 0.01% BRIJ-35, 10 mM MgCl2, 1 mM EGTA). ATP Km apparent is previously determined using a Z″-LYTE assay.
(§6) The Development Reagent is diluted in Development Buffer (see section Kinase-Specific Assay Conditions—Direct and Cascade for a complete description).
(§7) Bar-coded Corning, low volume NBS, black 384-well plate (Corning Cat. #4514) • 1. 100 nL—100× Test Compound in 100% DMSO • 2. 2.4 μL—Kinase buffer • 3. 5 μL—2× Peptide/Kinase Mixture • 4. 2.5 μL—4×ATP Solution • 5. 30—second plate shake • 6. 60—minute Kinase Reaction incubation at room temperature • 7. 5 μL—Development Reagent Solution • 8. 30—second plate shake • 9. 60—minute Development Reaction incubation at room temperature • 10. Read on fluorescence plate reader and analyze the data Z′-LYTE Assay Controls
(§8) SelectScreen Kinase Profiling Service uses XLfit from IDBS. The dose response curve is curve fit to model number 205 (sigmoidal dose-response model).
(§9) The 2×RPS6 KB1 (p70S6K)/Ser/Thr 07 mixture is prepared in 50 mM HEPES pH 7.5, 0.01% BRIJ-35, 10 mM MgCl2, 1 mM EGTA. The final 10 μL Kinase Reaction consists of 2.87-17.7 ng RPS6 KB1 (p70S6K) and 2 μM Ser/Thr 07 in 50 mM HEPES pH 7.5, 0.01% BRIJ-35, 10 mM MgCl2, 1 mM EGTA. After the 1 hour Kinase Reaction incubation, 5 μL of a 1:45000 dilution of Development Reagent A is added.

RET = RET (Homo sapiens, UniProt P07949); assay: Z'-LYTE SelectScreen biochemical kinase assay RET
Description: as §1, §2, §3, §4, §5, §6, §7, §8
as §9, with “2×RET/Tyr 02” for “2×RPS6 KB1 (p70S6K)/Ser/Thr 07”, “0.49-3.64” for “2.87-17.7”, “RET” for “RPS6 KB1 (p70S6K)”, “Tyr 02” for “Ser/Thr 07”, “1:128” for “1:45000”

FGFR1 = FGFR1 (Homo sapiens, UniProt P11362); assay: Z'-LYTE SelectScreen biochemical kinase assay FGFR1
Description: as §1, §2, §3, §4, §5, §6, §7, §8
The 2×FGFR1/Tyr 04 mixture is prepared in 50 mM HEPES pH 7.5, 0.01% BRIJ-35, 10 mM MgCl2, 4 mM MnCl2, 1 mM EGTA, 2 mM DTT. The final 10 μL Kinase Reaction consists of 0.44-2.45 ng FGFR1 and 2 μM Tyr 04 in 50 mM HEPES pH 7.5, 0.01% BRIJ-35, 10 mM MgCl2, 2 mM MnCl2, 1 mM EGTA, 1 mM DTT. After the 1 hour Kinase Reaction incubation, 5 μL of a 1:64 dilution of Development Reagent B is added.

Aβ total = Aβ total levels in H4 neuroglioma cells stably expressing human APP695 (MSD electrochemiluminescence); format: cell-based; settings: selectivity ratio vs. Aβtotal
Experimental: (§10) Cells were plated out to near confluency. The compounds to be tested were received as 10 mM stocks in 100% DMSO. A dilution series was initially generated in 100% DMSO and then diluted 200-fold in cell culture media such that the tested concentration range was 30 μM to 0.1 nM and the final DMSO concentration was 0.5%. The diluted compounds were incubated with the cells for 22 hours in an incubator at 37° C. and 5% CO2. Aβ42 levels were measured post-incubation from the supernatant of the cells using an Aβ42 specific electrochemiluminescence assay provided by Meso Scale Discovery (Catalog #L21CA-1). The measurement of Aβ42 levels were performed according to the manufacturer's protocol.
Aβ total levels were likewise determined using a specific electrochemiluminescence assay provided by Meso Scale Discovery (Catalog #L21ZA-1) according to the manufacturer's protocol.

Aβ42 production = assay: Inhibition of Aβ42 production in H4 neuroglioma cells stably expressing human APP695 (MSD electrochemiluminescence); format: cell-based; settings: for modulation of γ-secretase (in words): tables 4a/4b
Experimental: as §10

[1] = 10 μmolar compound concentration, ATP at Km app, read-out: RPS6KB1 (p70S6K) inhibition
[2] = read-out: % Inhibition mean RPS6KB1 (p70S6K)
[3] = 10 μmolar compound concentration, ATP at Km app, read-out: RET inhibition
[4] = read-out: % Inhibition mean RET
[5] = 10 μmolar compound concentration, ATP at Km app, read-out: FGFR1 inhibition
[6] = read-out: % Inhibition mean FGFR1
[7] = H4 neuroglioma cells expressing human APP695, 22 hours incubation, Table 4a
[8] = Homo sapiens, H4 neuroglioma cells, same assay as table 4a, prior art compounds, Table 4b

RPS6KB1 (p70S6K), sequence (P23443 whole entry): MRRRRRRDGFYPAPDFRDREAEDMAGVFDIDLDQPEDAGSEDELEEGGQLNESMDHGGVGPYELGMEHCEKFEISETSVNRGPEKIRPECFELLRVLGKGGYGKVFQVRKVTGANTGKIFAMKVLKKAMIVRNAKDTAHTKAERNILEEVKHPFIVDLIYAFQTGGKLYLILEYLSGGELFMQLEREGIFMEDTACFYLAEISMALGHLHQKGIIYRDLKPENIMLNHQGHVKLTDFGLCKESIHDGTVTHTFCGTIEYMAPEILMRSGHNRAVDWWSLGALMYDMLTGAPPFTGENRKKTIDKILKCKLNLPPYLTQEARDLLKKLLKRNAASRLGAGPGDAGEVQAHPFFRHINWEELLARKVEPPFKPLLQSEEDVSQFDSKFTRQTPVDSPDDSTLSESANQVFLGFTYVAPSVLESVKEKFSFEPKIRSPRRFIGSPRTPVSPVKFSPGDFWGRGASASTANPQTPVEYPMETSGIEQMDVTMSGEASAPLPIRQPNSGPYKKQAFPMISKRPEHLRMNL
FGFR1, sequence (P11362 22-822): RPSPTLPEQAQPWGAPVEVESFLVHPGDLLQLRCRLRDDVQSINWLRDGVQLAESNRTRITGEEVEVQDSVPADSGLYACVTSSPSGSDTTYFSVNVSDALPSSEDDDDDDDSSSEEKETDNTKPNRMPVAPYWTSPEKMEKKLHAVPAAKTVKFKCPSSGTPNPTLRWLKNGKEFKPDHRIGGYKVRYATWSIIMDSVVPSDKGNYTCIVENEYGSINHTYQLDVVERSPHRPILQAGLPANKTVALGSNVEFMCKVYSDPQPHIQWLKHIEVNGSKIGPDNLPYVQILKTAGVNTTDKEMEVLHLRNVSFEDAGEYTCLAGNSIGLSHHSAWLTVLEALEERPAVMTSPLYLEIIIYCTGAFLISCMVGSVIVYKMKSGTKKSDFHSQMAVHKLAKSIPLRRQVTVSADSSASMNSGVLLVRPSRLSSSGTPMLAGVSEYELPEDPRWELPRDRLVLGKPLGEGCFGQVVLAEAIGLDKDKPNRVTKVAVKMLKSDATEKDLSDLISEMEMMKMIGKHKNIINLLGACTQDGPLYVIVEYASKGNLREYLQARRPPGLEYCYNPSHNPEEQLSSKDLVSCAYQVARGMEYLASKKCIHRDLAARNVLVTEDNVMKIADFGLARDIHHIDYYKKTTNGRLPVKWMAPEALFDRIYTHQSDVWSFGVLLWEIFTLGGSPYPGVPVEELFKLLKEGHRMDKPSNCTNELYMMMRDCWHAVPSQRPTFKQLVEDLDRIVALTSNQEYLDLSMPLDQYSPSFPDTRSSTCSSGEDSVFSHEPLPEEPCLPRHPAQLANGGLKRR
RET, sequence (P07949 29-1114): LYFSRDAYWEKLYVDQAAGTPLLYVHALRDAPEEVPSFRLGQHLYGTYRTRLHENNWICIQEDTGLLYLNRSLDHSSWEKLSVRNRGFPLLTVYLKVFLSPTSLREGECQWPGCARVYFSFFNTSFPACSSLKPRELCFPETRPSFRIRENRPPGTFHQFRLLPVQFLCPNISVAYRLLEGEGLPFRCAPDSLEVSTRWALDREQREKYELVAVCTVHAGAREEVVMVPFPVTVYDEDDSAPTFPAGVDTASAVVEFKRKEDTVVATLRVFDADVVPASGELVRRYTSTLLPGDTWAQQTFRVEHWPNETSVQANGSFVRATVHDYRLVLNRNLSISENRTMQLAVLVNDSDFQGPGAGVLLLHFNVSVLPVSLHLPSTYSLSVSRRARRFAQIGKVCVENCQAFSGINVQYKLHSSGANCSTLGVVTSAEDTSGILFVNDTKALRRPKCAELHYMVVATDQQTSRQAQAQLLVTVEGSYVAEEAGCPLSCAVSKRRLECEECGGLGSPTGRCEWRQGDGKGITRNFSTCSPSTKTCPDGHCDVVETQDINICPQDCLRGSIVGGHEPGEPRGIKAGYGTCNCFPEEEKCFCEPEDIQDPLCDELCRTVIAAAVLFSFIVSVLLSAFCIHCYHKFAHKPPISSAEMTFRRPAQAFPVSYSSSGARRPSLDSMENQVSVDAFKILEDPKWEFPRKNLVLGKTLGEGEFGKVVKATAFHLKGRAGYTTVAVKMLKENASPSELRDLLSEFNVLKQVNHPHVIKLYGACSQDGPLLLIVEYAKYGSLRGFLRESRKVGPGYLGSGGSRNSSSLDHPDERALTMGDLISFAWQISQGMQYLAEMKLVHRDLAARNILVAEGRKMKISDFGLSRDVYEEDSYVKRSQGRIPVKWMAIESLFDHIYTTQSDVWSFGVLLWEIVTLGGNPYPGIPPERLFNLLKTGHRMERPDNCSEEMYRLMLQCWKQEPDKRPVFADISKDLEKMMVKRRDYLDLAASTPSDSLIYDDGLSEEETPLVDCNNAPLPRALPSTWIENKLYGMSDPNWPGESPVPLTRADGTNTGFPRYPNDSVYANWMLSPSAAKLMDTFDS

| SMILES | inhibition at 10 µM (RPS6KB1 (p70S6K); [1]) | inhibition at 10 µM (RPS6KB1 (p70S6K); [2]) | inhibition at 10 µM (RET; [3]) | inhibition at 10 µM (RET; [4]) | inhibition at 10 µM (FGFR1; [5]) | inhibition at 10 µM (FGFR1; [6]) | Ratio AβTotal IC50/Aβ42 IC50 (Aβ total; Table 4a) | IC50 (Aβ42 production; [7]) | inhibition at 10 µM (RPS6KB1 (p70S6K); read-out: % Inhibition mean) | inhibition at 10 µM (RET; read-out: % Inhibition mean) | inhibition at 10 µM (FGFR1; read-out: % Inhibition mean) | Ratio AβTotal IC50/Aβ42 IC50 (Aβ total; prior art compounds, Table 4b) | IC50 (Aβ42 production; [8]) | modulation of γ-secretase (in words) (Aβ42 production) |
| --- | --- | --- | --- | --- | --- | --- | --- | --- | --- | --- | --- | --- | --- | --- |
| Cc1cc(F)ccc1-c1cccn2nc(NC3CCc4c(cnn4C(C)C)C3)nc12 (centres unmarked) [Example 44, [8-(4-fluoro-2-methyl-phenyl)-[1,2,4]triazolo[1,5-a]pyridine-2-yl]-(1-isopropyl-4,5,6,7-tetrahydro-1H-indazol-5-yl)-amine] | < 40% | 12% | < 40% | 20% | < 40% | 20% | 64 | 430 nM |  |  |  |  |  |  |
| CC1(C)NC(=O)c2ccc(Nc3nc4c(-c5cccc(F)c5)cccn4n3)cc21 [Cpd. 302 in WO09155551, reference compound] | > 80% |  | > 80% |  | > 80% |  |  |  | 86% | 98% | 97% | 1 | > 10000 nM | do not show any modulation |
| CCn1nnc2c1CCC(Nc1nc3c(-c4ccc(F)cc4C)cccn3n1)C2 (centres unmarked) [Example 51, (1-Ethyl-4,5,6,7-tetrahydro-1H-benzotriazol-5-yl)-[8-(4-fluoro-2-methyl-phenyl)-[1,2,4]triazolo[1,5-a]pyridine-2-yl]-amine] | < 40% | 1% | < 40% | 2% | < 40% | 5% | 2 | 2200 nM |  |  |  |  |  |  |
| CCn1ncc2c1CCC(Nc1nc3c(-c4cncc(Cl)c4)cccn3n1)C2 (centres unmarked) [Example 73, [8-(5-Chloro-pyridin-3-yl)-[1,2,4]triazolo[1,5-a]pyridine-2-yl]-(1-ethyl-4,5,6,7-tetrahydro-1H-indazol-5-yl)-amine] | < 40% | 24% | 40 to 80% | 62% | < 40% | 32% | 420 | 40 nM |  |  |  |  |  |  |
| CCn1ncc2c1CC[C@H](Nc1nc3c(-c4ccc(F)c(Cl)c4)cccn3n1)C2 [Example S-61, (S)-[8-(3-Chloro-4-fluoro-phenyl)-[1,2,4]triazolo[1,5-a]pyridine-2-yl]-(1-ethyl-4,5,6,7-tetrahydro-1H-indazol-5-yl)-amine] | < 40% | 22% | < 40% | 23% | < 40% | 13% | 42 | 194 nM |  |  |  |  |  |  |
| CCn1nc(Cl)c2c1CCC(Nc1nc3c(-c4ccc(F)cc4C)cccn3n1)C2 (centres unmarked) [Example 48, (3-Chloro-1-ethyl-4,5,6,7-tetrahydro-1H-indazol-5-yl)-[8-(4-fluoro-2-methyl-phenyl)-[1,2,4]triazolo[1,5-a]pyridine-2-yl]-amine] | < 40% | 15% | < 40% | 18% | < 40% | 18% | 22 | 750 nM |  |  |  |  |  |  |
| CCn1ncc2c1CCC(Nc1nc3c(-c4cccnc4OC)cccn3n1)C2 (centres unmarked) [Example 69, (1-Ethyl-4,5,6,7-tetrahydro-1H-indazol-5-yl)-[8-(2-methoxy-pyridin-3-yl)-[1,2,4]triazolo[1,5-a]pyridine-2-yl]-amine] | < 40% | 31% | < 40% | 16% | < 40% | 20% | 60 | 500 nM |  |  |  |  |  |  |
| CC1(C)C(=O)Nc2ccc(Nc3nc4c(-c5cccc(F)c5)cccn4n3)cc21 [Cpd. 263 in WO09155551, reference compound] | > 80% |  | > 80% |  | > 80% |  |  |  | 93% | 96% | 99% | 2 | 6000 nM | rather poor modulation |
| Cc1cc(F)ccc1-c1cccn2nc(NC3CCc4c(cnn4C)C3)nc12 (centres unmarked) [Example 10, [8-(4-fluoro-2-methyl-phenyl)-[1,2,4]triazolo[1,5-a]pyridine-2-yl]-(1-methyl-4,5,6,7-tetrahydro-1H-indazol-5-yl)-amine] | < 40% | 2% | < 40% | 18% | < 40% | 15% | 27 | 380 nM |  |  |  |  |  |  |
| CCCCn1ncc2c1CCC(Nc1nc3c(-c4ccc(F)cc4C)cccn3n1)C2 (centres unmarked) [Example 46, [8-(4-fluoro-2-methyl-phenyl)-[1,2,4]triazolo[1,5-a]pyridine-2-yl]-(1-butyl-4,5,6,7-tetrahydro-1H-indazol-5-yl)-amine] | < 40% | 6% | < 40% | 26% | < 40% | 21% | 4 | 2770 nM |  |  |  |  |  |  |
| CCn1ncc2c1CC[C@@H](Nc1nc3c(-c4ccc(F)cc4C)cccn3n1)C2 [Example R-42, (R)-(1-Ethyl-4,5,6,7-tetrahydro-1H-indazol-5-yl)-[8-(4-fluoro-2-methyl-phenyl)-[1,2,4]triazolo[1,5-a]pyridine-2-yl]-amine] | < 40% | 22% | < 40% | 23% | < 40% | 16% |  | 40 nM |  |  |  |  |  |  |
